Measurements reported in patent publication US12018016B2, “Aryl sulfonyl (hydroxy) piperidines as CCR6 inhibitors” (CHEMOCENTRYX, INC., priority 2021, dated 2024).

Molecular target: T1, human CCR6 (Homo sapiens, UniProt P51684)
T1 construct: expressed in transfected cells; host or cells: Ba/F3 cells (mouse pro-B line)
T1 sequence (P51684 1-374): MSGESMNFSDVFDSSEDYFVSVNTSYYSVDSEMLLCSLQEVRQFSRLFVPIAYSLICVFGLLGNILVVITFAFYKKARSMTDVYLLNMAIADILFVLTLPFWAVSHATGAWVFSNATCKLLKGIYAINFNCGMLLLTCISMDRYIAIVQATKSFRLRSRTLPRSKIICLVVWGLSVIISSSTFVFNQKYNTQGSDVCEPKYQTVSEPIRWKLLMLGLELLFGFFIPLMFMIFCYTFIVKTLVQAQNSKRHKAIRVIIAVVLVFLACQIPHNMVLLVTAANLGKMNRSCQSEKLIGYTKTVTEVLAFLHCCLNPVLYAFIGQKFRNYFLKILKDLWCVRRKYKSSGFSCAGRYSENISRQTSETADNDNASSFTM
Assay: Migration assay (chemotaxis, ChemoTX)
Type: cell-based
Conditions: hCCR6-transfected Ba/F3 cells in human serum, migration to recombinant human CCL20 10 nM, 37° C. 45 minutes; read-out: Potency (IC50 value in the migration assay)
Summary of the method: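 Ba/F3 cells transfected with human CCR6 and butyrate-primed for 24 h were suspended at 4 million/ml in human serum with compound, serially diluted from a 1 μM final top concentration. Cells migrated through a 5-μm polycarbonate membrane toward 10 nM human CCL20 for 45 min at 37 °C. Migrated cells were quantified by CyQUANT fluorescence.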

Row | Structure (SMILES) | IC50 [nM]
1 | O=C1Cc2ccc(-c3ccc(S(=O)(=O)N4CC[C@@H](Nc5ccc(C(F)(F)F)cn5)[C@@H](O)C4)cc3)cc2N1 [Example 9, 6-(4-(((3S,4R)-3-hydroxy-4-((5-(trifluoromethyl)pyridin-2-yl)amino)piperidin-1-yl)sulfonyl)phenyl)indolin-2-one] | < 1
2 | O=S(=O)(c1ccc(-c2ccnc(CO)c2)cc1)N1CC[C@@H](Nc2ccc(C(F)(F)F)cn2)[C@@H](O)C1 [Example 10, (3S,4R)-1-((4-(2-(hydroxymethyl)pyridin-4-yl)phenyl)sulfonyl)-4-((5-(trifluoromethyl)pyridin-2-yl)amino)piperidin-3-ol] | 1 to 10
3 | Cc1nnc(-c2cc(-c3ccc(S(=O)(=O)N4CC[C@@H](Nc5ccc(C(F)(F)F)cn5)[C@@H](O)C4)cc3)ccn2)o1 [Example 11, (3S,4R)-1-((4-(2-(5-methyl-1,3,4-oxadiazol-2-yl)pyridin-4-yl)phenyl)sulfonyl)-4-((5-(trifluoromethyl)pyridin-2-yl)amino)piperidin-3-ol] | < 1
4 | O=C1NCc2cc(-c3ccc(S(=O)(=O)N4CC[C@@H](Nc5ccc(C(F)(F)F)cn5)[C@@H](O)C4)cc3)ccc21 [Example 12, 5-(4-(((3S,4R)-3-hydroxy-4-((5-(trifluoromethyl)pyridin-2-yl)amino)piperidin-1-yl)sulfonyl)phenyl)isoindolin-1-one] | < 1
5 | Nc1nnc2ccc(-c3ccc(S(=O)(=O)N4CC[C@@H](Nc5ccc(C(F)(F)F)cn5)[C@@H](O)C4)cc3)cn12 [Example 13, (3S,4R)-1-((4-(3-amino-[1,2,4]triazolo[4,3-a]pyridin-6-yl)phenyl)sulfonyl)-4-((5-(trifluoromethyl)pyridin-2-yl)amino)piperidin-3-ol] | < 1
6 | O=C1NCc2cc(-c3ccc(S(=O)(=O)N4CC[C@@H](Nc5ccc(C(F)(F)F)cn5)[C@@H](O)C4)cc3)ccc2N1 [Example 14, 6-(4-(((3S,4R)-3-hydroxy-4-((5-(trifluoromethyl)pyridin-2-yl)amino)piperidin-1-yl)sulfonyl)phenyl)-3,4-dihydroquinazolin-2(1H)-one] | < 1
7 | COc1cc(-c2ccc(S(=O)(=O)N3CC[C@@H](Nc4ccc(C(F)(F)F)cn4)[C@@H](O)C3)cc2)cc2c1NC(=O)C2 [Example 15, 5-(4-(((3S,4R)-3-hydroxy-4-((5-(trifluoromethyl)pyridin-2-yl)amino)piperidin-1-yl)sulfonyl)phenyl)-7-methoxyindolin-2-one] | < 1
8 | Cc1cc(-c2ccc(S(=O)(=O)N3CC[C@@H](Nc4ccc(C(F)(F)F)cn4)[C@@H](O)C3)cc2)cc2cn[nH]c12 [Example 16, (3S,4R)-1-((4-(7-methyl-1H-indazol-5-yl)phenyl)sulfonyl)-4-((5-(trifluoromethyl)pyridin-2-yl)amino)piperidin-3-ol] | < 1
9 | Cc1nc2[nH]ccc2cc1-c1ccc(S(=O)(=O)N2CC[C@@H](Nc3ccc(C(F)(F)F)cn3)[C@@H](O)C2)cc1 [Example 17, (3S,4R)-1-((4-(6-methyl-1H-pyrrolo[2,3-b]pyridin-5-yl)phenyl)sulfonyl)-4-((5-(trifluoromethyl)pyridin-2-yl)amino)piperidin-3-ol] | 1 to 10
10 | NC(=O)c1ccnc(-c2ccc(S(=O)(=O)N3CC[C@@H](Nc4ccc(C(F)(F)F)cn4)[C@@H](O)C3)cc2)c1 [Example 18, 2-(4-(((3S,4R)-3-Hydroxy-4-((5-(trifluoromethyl)pyridin-2-yl)amino)piperidin-1-yl)sulfonyl)phenyl)isonicotinamide] | 1 to 10
11 | NC(=O)c1ncc(-c2ccc(S(=O)(=O)N3CC[C@@H](Nc4ccc(C(F)(F)F)cn4)[C@@H](O)C3)cc2)cc1N [Example 19, 3-Amino-5-(4-(((3S,4R)-3-hydroxy-4-((5-(trifluoromethyl)pyridin-2-yl)amino)piperidin-1-yl)sulfonyl)phenyl)picolinamide] | 1 to 10
12 | Cc1cnc(C(N)=O)cc1-c1ccc(S(=O)(=O)N2CC[C@@H](Nc3ccc(C(F)(F)F)cn3)[C@@H](O)C2)cc1 [Example 20, 4-(4-(((3S,4R)-3-Hydroxy-4-((5-(trifluoromethyl)pyridin-2-yl)amino)piperidin-1-yl)sulfonyl)phenyl)-5-methylpicolinamide] | < 1
13 | COc1cc(-c2ccc(S(=O)(=O)N3CC[C@@H](Nc4ccc(C(F)(F)F)cn4)[C@@H](O)C3)cc2)cc2cn[nH]c12 [Example 21, (3S,4R)-1-((4-(7-methoxy-1H-indazol-5-yl)phenyl)sulfonyl)-4-((5-(trifluoromethyl)pyridin-2-yl)amino)piperidin-3-ol] | < 1
14 | O=S(=O)(c1ccc(-c2cnc3[nH]ccc3c2C(F)(F)F)cc1)N1CC[C@@H](Nc2ccc(C(F)(F)F)cn2)[C@@H](O)C1 [Example 22, (3S,4R)-1-((4-(4-(trifluoromethyl)-1H-pyrrolo[2,3-b]pyridin-5-yl)phenyl)sulfonyl)-4-((5-(trifluoromethyl)pyridin-2-yl)amino)piperidin-3-ol] | < 1
15 | O=S(=O)(c1ccc(-c2ccc3[nH]ncc3c2)cc1)N1CC[C@@H](Nc2ccc(C(F)(F)F)cn2)[C@@H](O)C1 [Example 23, (3S,4R)-1-((4-(1H-indazol-5-yl)phenyl)sulfonyl)-4-((5-(trifluoromethyl)pyridin-2-yl)amino)piperidin-3-ol] | < 1
16 | Cc1cc2[nH]ncc2cc1-c1ccc(S(=O)(=O)N2CC[C@@H](Nc3ccc(C(F)(F)F)cn3)[C@@H](O)C2)cc1 [Example 25, (3S,4R)-1-((4-(6-methyl-1H-indazol-5-yl)phenyl)sulfonyl)-4-((5-(trifluoromethyl)pyridin-2-yl)amino)piperidin-3-ol] | 1 to 10
17 | Cc1c(-c2ccc(S(=O)(=O)N3CC[C@@H](Nc4ccc(C(F)(F)F)cn4)[C@@H](O)C3)cc2)ccc2[nH]ncc12 [Example 26, (3S,4R)-1-((4-(4-methyl-1H-indazol-5-yl)phenyl)sulfonyl)-4-((5-(trifluoromethyl)pyridin-2-yl)amino)piperidin-3-ol] | < 1
18 | NC(=O)c1cncc(-c2ccc(S(=O)(=O)N3CC[C@@H](Nc4ccc(C(F)(F)F)cn4)[C@@H](O)C3)cc2)c1 [Example 27, 5-(4-(((3S,4R)-3-Hydroxy-4-((5-(trifluoromethyl)pyridin-2-yl)amino)piperidin-1-yl)sulfonyl)phenyl)nicotinamide] | 1 to 10
19 | NC(=O)c1ccc(-c2ccc(S(=O)(=O)N3CC[C@@H](Nc4ccc(C(F)(F)F)cn4)[C@@H](O)C3)cc2)cn1 [Example 28, 5-(4-(((3S,4R)-3-Hydroxy-4-((5-(trifluoromethyl)pyridin-2-yl)amino)piperidin-1-yl)sulfonyl)phenyl)picolinamide] | < 1
20 | CC(C)(C)OC(=O)NCCn1cc(C#N)c2cc(-c3ccc(S(=O)(=O)N4CC[C@@H](Nc5ccc(C(F)(F)F)cn5)[C@@H](O)C4)cc3)cnc21 [Example 29, tert-Butyl (2-(3-cyano-5-(4-(((3S,4R)-3-hydroxy-4-((5-(trifluoromethyl)pyridin-2-yl)amino)piperidin-1-yl)sulfonyl)phenyl)-1H-pyrrolo[2,3-b]pyridin-1-yl)ethyl)carbamate] | < 1
21 | Nc1nc2ccc(-c3ccc(S(=O)(=O)N4CC[C@@H](Nc5ccc(C(F)(F)F)cn5)[C@@H](O)C4)cc3)cc2c(=O)[nH]1 [Example 30, 2-amino-6-(4-(((3S,4R)-3-hydroxy-4-((5-(trifluoromethyl)pyridin-2-yl)amino)piperidin-1-yl)sulfonyl)phenyl)quinazolin-4(3H)-one] | < 1
22 | NC(=O)c1cc(-c2ccc(S(=O)(=O)N3CC[C@@H](Nc4ccc(C(F)(F)F)cn4)[C@@H](O)C3)cc2)ccn1 [Example 31, 4-(4-(((3S,4R)-3-hydroxy-4-((5-(trifluoromethyl)pyridin-2-yl)amino)piperidin-1-yl)sulfonyl)phenyl)picolinamide] | < 1
23 | N#Cc1c[nH]c2ncc(-c3ccc(S(=O)(=O)N4CC[C@H](Nc5ccc(C(F)(F)F)cn5)[C@H](O)C4)cc3)cc12 [Example 32, 5-(4-(((3R,4S)-3-hydroxy-4-((5-(trifluoromethyl)pyridin-2-yl)amino)piperidin-1-yl)sulfonyl)phenyl)-1H-pyrrolo[2,3-b]pyridine-3-carbonitrile] | 1 to 10
24 | Cc1c(-c2ccc(S(=O)(=O)N3CC[C@@H](Nc4ccc(C#N)cn4)[C@@H](O)C3)cc2)cnc2[nH]ccc12 [Example 33, 6-[[(3S,4R)-3-hydroxy-1-[4-(4-methyl-1H-pyrrolo[2,3-b]pyridin-5-yl)phenyl]sulfonyl-4-piperidyl]amino]pyridine-3-carbonitrile] | < 1
25 | N#Cc1ccc(N[C@@H]2CCN(S(=O)(=O)c3ccc(-c4cnc5[nH]cc(C#N)c5c4)cc3)C[C@@H]2O)nc1 [Example 34, 5-[4-[[(3S,4R)-4-[(5-cyano-2-pyridyl)amino]-3-hydroxy-1-piperidyl]sulfonyl]phenyl]-1H-pyrrolo[2,3-b]pyridine-3-carbonitrile] | < 1
26 | Cc1c(-c2ccc(S(=O)(=O)N3CC[C@@H](Nc4ccc(C(F)(F)F)cn4)[C@@H](O)C3)cc2)ccc2[nH]nc(C#N)c12 [Example 35, 5-(4-(((3S,4R)-3-hydroxy-4-((5-(trifluoromethyl)pyridin-2-yl)amino)piperidin-1-yl)sulfonyl)phenyl)-4-methyl-1H-indazole-3-carbonitrile] | < 1
